Data published in patent US5747484A, “Crystalline cepham acid addition salts and processes for their preparation” (Hoechst Aktiengesellschaft, priority 1994, dated 1998).
Structures can show the parent of a compound that is named as a salt.

Details: bovine, in vivo, im, 5 mg/kg
Method: The terminal half-lives (t1/2) after single injection (i.m.) of 5 mg of betaine VI (n=2) per kg of body weight for cattle are summarized in Table 1 for compounds according to the invention. […] The known salts sulfate and dihydroiodide from DE 3 706 020 are used as a standard.

| Structure (SMILES) | Terminal half-lives (t1/2) [h] |
| --- | --- |
| CO/N=C(\C(=O)N[C@@H]1C(=O)N2C(C(=O)[O-])=C(C[n+]3cccc4c3CCCC4)CS[C@H]12)c1csc(N)n1 [Example 20] | 9.39 |
| CO/N=C(\C(=O)N[C@@H]1C(=O)N2C(C(=O)[O-])=C(C[n+]3cccc4c3CCCC4)CS[C@H]12)c1csc(N)n1 [Example 17] | 17.8 |
| CO/N=C(\C(=O)N[C@@H]1C(=O)N2C(C(=O)[O-])=C(C[n+]3cccc4c3CCCC4)CS[C@H]12)c1csc(N)n1 [Example 18] | 13.00 |
| CO/N=C(\C(=O)N[C@@H]1C(=O)N2C(C(=O)[O-])=C(C[n+]3cccc4c3CCCC4)CS[C@H]12)c1csc(N)n1 [Example 6] | 5.87 |
| CO/N=C(\C(=O)N[C@@H]1C(=O)N2C(C(=O)[O-])=C(C[n+]3cccc4c3CCCC4)CS[C@H]12)c1csc(N)n1 [Example 23] | 12.70 |
| CO/N=C(\C(=O)N[C@@H]1C(=O)N2C(C(=O)[O-])=C(C[n+]3cccc4c3CCCC4)CS[C@H]12)c1csc(N)n1 [Example 22] | 8.77 |
| CO/N=C(\C(=O)N[C@@H]1C(=O)N2C(C(=O)[O-])=C(C[n+]3cccc4c3CCCC4)CS[C@H]12)c1csc(N)n1 [Example 9] | 15.6 |
| CO/N=C(\C(=O)N[C@@H]1C(=O)N2C(C(=O)[O-])=C(C[n+]3cccc4c3CCCC4)CS[C@H]12)c1csc(N)n1 [Example 16] | 9.16 |
| CO/N=C(\C(=O)N[C@@H]1C(=O)N2C(C(=O)[O-])=C(C[n+]3cccc4c3CCCC4)CS[C@H]12)c1csc(N)n1 [Example 1, Cefquinome-6-hydroxy-1-naphthoate] | 9.20 |
| CO/N=C(\C(=O)N[C@@H]1C(=O)N2C(C(=O)[O-])=C(C[n+]3cccc4c3CCCC4)CS[C@H]12)c1csc(N)n1 [Example 21] | 9.96 |
| CO/N=C(\C(=O)N[C@@H]1C(=O)N2C(C(=O)[O-])=C(C[n+]3cccc4c3CCCC4)CS[C@H]12)c1csc(N)n1 [Example 2] | 18.8 |
| CO/N=C(\C(=O)N[C@@H]1C(=O)N2C(C(=O)[O-])=C(C[n+]3cccc4c3CCCC4)CS[C@H]12)c1csc(N)n1 [Example 15] | 11.1 |

The next lines start with the values.

| Terminal half-lives (t1/2) [h] | Structure (SMILES) |
| --- | --- |
| 2.15 | CO/N=C(\C(=O)N[C@@H]1C(=O)N2C(C(=O)[O-])=C(C[n+]3cccc4c3CCCC4)CS[C@H]12)c1csc(N)n1 [Sulfate, cefquinome sulfate, reference compound] |
| 16.20 | CO/N=C(\C(=O)N[C@@H]1C(=O)N2C(C(=O)[O-])=C(C[n+]3cccc4c3CCCC4)CS[C@H]12)c1csc(N)n1 [Example 11, cefquinome-2,4-dihydroxybenzoate] |
| 4.19 | CO/N=C(\C(=O)N[C@@H]1C(=O)N2C(C(=O)[O-])=C(C[n+]3cccc4c3CCCC4)CS[C@H]12)c1csc(N)n1 [Dihydroiodide, reference compound] |
| 9.21 | CO/N=C(\C(=O)N[C@@H]1C(=O)N2C(C(=O)[O-])=C(C[n+]3cccc4c3CCCC4)CS[C@H]12)c1csc(N)n1 [Example 13] |
| 7.07 | CO/N=C(\C(=O)N[C@@H]1C(=O)N2C(C(=O)[O-])=C(C[n+]3cccc4c3CCCC4)CS[C@H]12)c1csc(N)n1 [Example 19] |
| 15.20 | CO/N=C(\C(=O)N[C@@H]1C(=O)N2C(C(=O)[O-])=C(C[n+]3cccc4c3CCCC4)CS[C@H]12)c1csc(N)n1 [Example 12] |
